Data taken from patent US10168342B2, “Lipid probes and uses thereof” (THE SCRIPPS RESEARCH INSTITUTE, priority 2015, dated 2019).
Where two headings read alike, the source gives them in different places.

Tests used:
[1] = molecular target: T1, AEA-DA lipid probe targets in Neuro2a cells (Mus musculus, UniProt Q921T2)
T1 sequence (Q921T2 1-595): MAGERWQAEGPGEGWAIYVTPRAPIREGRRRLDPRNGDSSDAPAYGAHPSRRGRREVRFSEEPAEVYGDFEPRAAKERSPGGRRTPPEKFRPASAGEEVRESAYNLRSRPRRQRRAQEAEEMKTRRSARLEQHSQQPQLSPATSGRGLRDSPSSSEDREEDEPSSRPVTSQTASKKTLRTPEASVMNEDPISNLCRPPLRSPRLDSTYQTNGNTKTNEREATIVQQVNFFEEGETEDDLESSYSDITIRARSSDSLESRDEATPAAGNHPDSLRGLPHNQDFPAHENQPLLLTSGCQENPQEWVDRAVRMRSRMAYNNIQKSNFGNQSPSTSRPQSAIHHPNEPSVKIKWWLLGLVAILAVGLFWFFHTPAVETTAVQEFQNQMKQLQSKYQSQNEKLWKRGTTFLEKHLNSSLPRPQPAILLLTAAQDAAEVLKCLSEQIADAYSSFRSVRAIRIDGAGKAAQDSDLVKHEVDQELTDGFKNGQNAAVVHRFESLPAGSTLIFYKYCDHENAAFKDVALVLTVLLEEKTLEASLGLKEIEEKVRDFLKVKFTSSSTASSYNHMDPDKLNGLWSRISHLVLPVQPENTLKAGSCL

[2] = system: NAEs, NATs, AA and 2-AG in Neuro2a cells; assay: Targeted LC-MS (MRM) analysis of lipids from Neuro2a cells; assay type: cell-based, mouse; conditions: for NAEs when co-treated with PF-7845 (1 μM) / AA levels: 10 μM; for AA levels / 2-AG levels / cellular concentrations of NAEs and NATs: Neuro2a cells; for 2-AG levels / cellular concentrations of NAEs and NATs: 10 μM (PF-7845 1 μM); for cellular concentrations of NAEs and NATs: 6 h
Method: Discovery metabolite profiling was performed as described by Saghatelian et al., “Assignment of endogenous substrates to enzymes by global metabolite profiling,” Biochemistry 43:14332-14339 (2004) with several modifications. […] The media from the cells was removed and cells were washed with DPBS (2×5.0 mL) before adding freshly prepared media solutions containing vehicle or compound. After incubating for 6 h at 37° C. and subsequent removal of the media, the cells were harvested by scrapping in cold DPBS (3 mL) and pelleted by centrifugation in glass vials. The pellets were washed once with cold DPBS (3 mL) and then cold […] (2:1) (3 mL) was added. After vortexing, the vials were centrifuged (3,000×g, 10 min, 4° C.) and the bottom (organic) layer was transferred to a new glass vial and concentrated under a stream of N2. Samples were stored at −80° C. until the day of analysis when they were reconstituted in Mobile Phase A (100 μL, see below).
Neuro2a cells were treated and lipids extracted as described above. A mixture of internal standards [AEA-d4 (10 pmol), 2-AG-d5 (100 pmol), AA-d8 (100 pmol), PEA-d4 (100 pmol), PDA (1.0 nmol)] was added to the organic phase prior to extracting cells. NAEs, MAGs, AA and NATs were analyzed similarly to previously described methods (Saghatelian et al., 2004). The following MS parameters were used to measure the indicated metabolites by MRM (precursor ion, product ion, collision energy, polarity): NAE 20:4 (AEA) (348, 62, 12, positive), AEA-d4 (352, 66, 12, positive), NAE 16:0 (PEA) (300, 62, 12, positive), PEA-d4 (304, 62, 12, positive), NAE 18:0 (328, 62, 12, positive), NAE 18:1 (326, 62, 12, positive), NAE 18:2 (324, 62, 12, positive), 2-AG (379, 287, 8, positive), 2-AG-d5 (384, 287, 8, positive), AA (303, 259, 4, negative), AA-d8 (311, 267, 4, negative), NAT 20:4 (410, 80, 35, negative), NAT 22:1 (444, 80, 35, negative), NAT 24:1 (472, 80, 35, negative), NAT 24:0 (474, 80, 35, negative), NAT 26:0 (502, 80, 35, negative). The indicated lipids were quantified by measuring the area under the peak relative to an internal standard (AEA-d4 for AEA and NAE 18:2; PEA-d4 for PEA, NAE 18:1 and NAE 18:0; 2-AG-d5 for 2-AG; AA-d8 for AA and 20:4 NAT; PDA for all other NATs).

| SMILES | SILAC ratio Tor1aip1 ([1]; competitor 200 μM) | NAEs when co-treated with PF-7845 (1 μM) [2] | AA levels [2] | 2-AG levels [2] | cellular concentrations of NAEs and NATs [2] | SILAC ratio Tor1aip1 ([1]; competitor 10 μM) | SILAC ratio Tor1aip1 ([1]; competitor 25 μM) | SILAC ratio Tor1aip1 ([1]; competitor 50 μM) | SILAC ratio Tor1aip1 ([1]; competitor 100 μM) |
| --- | --- | --- | --- | --- | --- | --- | --- | --- | --- |
| CCCCC/C=C\C/C=C\C/C=C\C/C=C\CCCC(=O)NCCO [AEA, anandamide, reference compound] | 1.5 | – | – | – | – | – | – | – | – |
| CN1CCN(C(=O)c2c(-c3ccccc3)c3cc([N+](=O)[O-])ccc3n2C)CC1 [KML110, (1-Methyl-5-nitro-3-phenyl-1H-indol-2-yl)(4-methylpiperazin-1-yl)methanone] | – | do not produce elevations | do not affect | modest increase | elevated | – | – | – | – |
| CN1CCN(C(=O)c2[nH]c3ccc([N+](=O)[O-])cc3c2-c2ccccc2)CC1 [MJN228, (4-Methylpiperazin-1-yl)(5-nitro-3-phenyl-1H-indol-2-yl)methanone] | – | do not produce elevations | do not affect | modest increase | elevated | 1.3 | 1.3 | 1.3 | 2.0 |
